Publication PMC10542788, “Discovery of a cystathionine γ-lyase (CSE) selective inhibitor targeting active-site pyridoxal 5′-phosphate (PLP) via Schiff base formation” (Scientific Reports, 2023)

What was measured:
human CSE (hCSE) = biological target: T1, human CSE (hCSE) (Homo sapiens, UniProt P32929); assay: hCSE inhibition in lysate of HEK293T cells expressing hCSE, HSip-1; assay type: biochemical; settings: mean ± S.E., read-out: IC50, inhibitory activity towards hCSE in cell lysate
T1 construct: expressed in transfected cells; host or cells: HEK293T
Procedure: We first examined whether or not 1 inhibits human CSE (hCSE) in cell lysates. We prepared the lysate of HEK293T cells expressing hCSE, and added 1.5 mM cysteine, 100 μM PLP, 1 μM HSip-1 and various concentrations of 1 to it. Based on fluorescence measurements, the IC50 value of 1 for hCSE was calculated to be 26 ± 2 µM, which is similar to the value for rCSE measured in HEPES buffer (Fig. 4b). […] We also confirmed that all amino acid residues of rCSE involved in the recognition of 1 are conserved in hCSE (Supplementary Fig. S10).
10 µL of 1.5 mM cysteine solution in 30 mM HEPES (pH 7.4) was added to 10 µL of solution containing 300 µg/mL cell lysate of HEK293T cells expressing hCSE, 100 µM PLP, 1 µM HSip-1, 0.005% tween 20 and various concentrations of the inhibitor (0.5% DMSO as a cosolvent). The mixture was incubated at 37 °C for 3 h and the fluorescence intensity of HSip-1 was measured with a microplate reader.

hCSE = biological target: T2, hCSE (Homo sapiens, UniProt P32929); assay: hCSE inhibition in living HEK293T cells expressing hCSE (pretreatment, wash, lysis, HSip-1); assay type: cell-based
T2 construct: expressed in transfected cells; host or cells: HEK293T
Procedure: We next examined the suitability of 1 for live-cell experiments. First, we performed CCK-8 assay (Dojindo) to examine its cytotoxicity. COS7 cells were incubated with various concentrations of 1 for 27 h at 37 °C under 5% CO2 and the cell viability was assessed. […] We then examined whether 1 can inhibit the enzymatic activity of hCSE in living cells by employing an indirect approach (Supplementary Fig. S12). HEK293T cells expressing hCSE were incubated with 0–1 mM 1 for 30 min, then washed twice with phosphate-buffered saline (PBS), and lysed in RIPA buffer (50 mM Tris–HCl buffer (pH 7.6), 150 mM NaCl, 1% Nonidet P40 Substitute, 0.5% sodium deoxycholate, protease inhibitor cocktail, 0.1% SDS). The inhibitory activity of 1 was evaluated by fluorescence detection after adding 1.5 mM cysteine, 100 μM PLP and 1 μM HSip-1 to these cell lysates.
Supplementary Figure S12. Experimental protocol for the indirect assessment of the hCSE-inhibitory activity of 1 in living cells. […] L-Cysteine (substrate), PLP and HSip-1 were added to the cell lysate (450 μg/mL cell lysate, 1.5 mM L-cysteine, 100 μM PLP, 1 μM HSip-1 in 30 mM HEPES buffer (pH 7.4) containing 0.005% Tween 20), and the fluorescence was measured with a plate reader (Ex. = 490 nm, Em. = 510 nm).

rCBS = biological target: T3, rCBS (Rattus norvegicus, UniProt P32232); assay: rCBS inhibition, HSip-1 fluorescence; assay type: biochemical; settings: 30 µM
T3 construct: GST (N); HA (C); made in house; host or cells: E. coli BL21
T3 sequence (P32232 1-561): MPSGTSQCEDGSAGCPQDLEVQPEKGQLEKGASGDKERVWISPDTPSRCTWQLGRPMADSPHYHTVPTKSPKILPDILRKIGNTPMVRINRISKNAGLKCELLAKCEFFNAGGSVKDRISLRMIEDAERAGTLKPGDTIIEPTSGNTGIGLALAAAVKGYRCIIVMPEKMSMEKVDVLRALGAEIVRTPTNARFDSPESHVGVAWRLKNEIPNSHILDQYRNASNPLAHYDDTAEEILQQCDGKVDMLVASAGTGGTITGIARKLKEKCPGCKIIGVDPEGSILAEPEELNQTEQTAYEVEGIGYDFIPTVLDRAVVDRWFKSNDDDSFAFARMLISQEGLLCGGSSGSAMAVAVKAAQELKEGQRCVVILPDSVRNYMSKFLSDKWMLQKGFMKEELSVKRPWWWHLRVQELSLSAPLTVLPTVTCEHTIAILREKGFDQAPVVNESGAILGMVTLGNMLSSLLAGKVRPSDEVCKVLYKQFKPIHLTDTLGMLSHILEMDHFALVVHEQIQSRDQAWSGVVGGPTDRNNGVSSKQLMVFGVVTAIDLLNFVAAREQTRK
Procedure: (§1) The selectivity of 1, 2 and PAG for rCSE over other RSS-producing enzymes, CBS and 3MST, was examined (Fig. 4a). CBS is a PLP-dependent enzyme, like CSE, and produces H2S from cysteine and homocysteine as substrates. 3MST is also an H2S-producing enzyme, but is not PLP-dependent and uses 3-mercaptopyruvate as a substrate. The amount of H2S produced by CBS or 3MST was evaluated in the presence or absence of the inhibitor by measuring the fluorescence intensity of HSip-1. […] We also examined the inhibitory activity towards two other PLP-dependent enzymes, MGL and ALT. MGL metabolizes L-methionine to α-ketobutyric acid, methanethiol and ammonia, and is inhibited by PAG[14]. MGL also produces H2S from homocysteine as a substrate, and this activity of MGL can be measured by fluorescence detection with HSip-1. […] The enzymatic activity of ALT can be assessed by means of a coupled assay using the reduction of pyruvate to L-lactate with lactate dehydrogenase and NADH and measuring the change in absorption of NADH.
10 µL of 2.5 mM cysteine and 2.5 mM homocysteine in 30 mM HEPES (pH 7.4) was added to 10 µL of a solution containing 20 µg/mL rCBS, 50 µM PLP, 100 µM SAM, 1 µM HSip-1, 0.005% tween 20, 0.5% DMSO and various concentrations of the inhibitors. The mixture was incubated at 37 °C for 2 h and the fluorescence intensity of HSip-1 was measured with a microplate reader.

ALT = ALT inhibition, coupled absorbance assay (NADH, 340 nm); assay type: biochemical; settings: 30 µM
Procedure: as §1
An alanine aminotransferase activity assay kit (BioVision, Inc.) was used to measure the activity of ALT. A mixture of L-alanine, NADH, LDH (lactate dehydrogenase) and ALT was incubated at 37 °C for 15 min, then α-ketoglutarate was added to the mixture and the absorbance at 340 nm was measured with a microplate reader.

T2 sequence (P32929 whole entry): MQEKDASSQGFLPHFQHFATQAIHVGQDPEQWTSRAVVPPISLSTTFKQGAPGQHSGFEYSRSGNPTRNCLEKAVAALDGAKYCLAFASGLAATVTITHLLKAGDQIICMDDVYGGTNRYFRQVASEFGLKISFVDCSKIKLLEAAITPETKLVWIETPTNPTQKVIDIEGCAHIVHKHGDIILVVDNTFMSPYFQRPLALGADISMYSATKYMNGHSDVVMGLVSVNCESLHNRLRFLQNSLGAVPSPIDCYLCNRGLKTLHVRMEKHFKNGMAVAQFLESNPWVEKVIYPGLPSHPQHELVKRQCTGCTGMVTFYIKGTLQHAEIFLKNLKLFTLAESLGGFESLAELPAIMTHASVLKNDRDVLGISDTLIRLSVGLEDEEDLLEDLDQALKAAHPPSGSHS
T1 sequence (P32929 whole entry): as above

**Q.** `NNC(=O)C(N)=O` [Compound 1, oxamic hydrazide] was tested. Which IC50 (human CSE (hCSE)) did it give?
**A.** 26 ± 2 µM

**Q.** What about the IC50 (hCSE; HEK293T cells expressing hCSE incubated 30 min with 1, washed, lysed, mean ± S.E., read-out: IC50, inhibitory activity towards hCSE in living cells) of the same molecule?
**A.** 170 ± 33 µM

**Q.** And the cell-membrane permeability (hCSE; concluded from inhibition of hCSE in living cells)?
**A.** sufficiently cell-membrane permeable

**Q.** And the “selectivity for CSE over CBS” value (rCBS)?
**A.** high selectivity for CSE over CBS

**Q.** What about the “inhibitory activity towards ALT / selectivity for CSE over ALT” value (ALT) of the same molecule?
**A.** high selectivity for CSE over MGL and ALT
